The values below come from PubChem BioAssay (NCI).

Holding throughout (assay): growth of human tumour cells (NCI), 48 h
Assay [1] has as its system HCC-2998 colon.
Assay [2] concerns SNB-75 CNS.
The test system of assay [3] is ACHN renal.
Assay [4] deals with NCI-H522 lung.
The test system of assay [5] is RXF 393 renal.
Assay [6] deals with 786-0 renal.
For assay [7], the system named is HOP-62 NSCLC.
For assay [8], the system named is IGROV1 ovarian.
The subject of assay [9] is OVCAR-3 ovarian.

SMILES strings stand for the structures.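 Exposure lasted 48 hours, with cells grown in 96-well plates and compounds tested at five concentrations. The concentration for full growth arrest is given as TGI.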

Regarding `COC(=O)[C@]1(C)C(OC)=CC(=O)C2C1[C@H]1CCC[C@@H]21` (some centres not stated), the TGI in [1], in assay [2], in [3], in assay [4], in assay [5] and in assay [6] was above 100 µM throughout. Also, the TGI in assay [7], in assay [8] and in assay [9] was above 100 µM each time.
As to `COc1ccccc1NC(=O)C1=C(C)NC(C)=C(C(=O)Nc2ccccc2OC)C1c1ccc(N(C)C)cc1`, the TGI in assay [1] was 38.2 µM; in assay [2], 80.6 µM; in assay [3] it was above 100 µM; in [4] it was 53.7 µM; in assay [5], 68.6 µM; in assay [6] it was above 100 µM. Also, the values for the TGI in assay [7], in assay [8] and in assay [9] were 57.2 µM, above 100 µM and 44.1 µM, respectively.
As to `COc1cc(/C=C/c2ccc(OC)c(OC)c2OC)cc(OC)c1OC`, the TGI in assay [1] was 18.6 µM; in assay [2], 56.7 µM; in assay [3] it was above 92.2 µM; in assay [4] it was above 51.6 µM; in assay [5], 46.3 µM; in assay [6], 51.6 µM. For the same compound, the TGI in [7] amounted to 32.9 µM; in assay [8] it was 83.3 µM; in assay [9], 39.3 µM.
As for `COC(=O)C(CC(=O)c1c[nH]c2ccccc12)c1c[nH]c2ccccc12` (configuration not stated), the TGI in assay [1] worked out at 45.5 µM; in assay [2], 58 µM; in assay [3], 37.7 µM; in assay [5], 28 µM; in assay [6] it was 57.7 µM; in assay [7], 54.8 µM. The TGI in assay [8] and in [9] was above 10 µM in each case.
Turning to `CS(=O)(=O)NNS(=O)(=O)c1ccc(Cl)cc1`, the TGI in [1], in assay [2], in assay [3], in assay [4], in assay [5] and in assay [6] was above 100 µM throughout. Further, the TGI in [7], in assay [8] and in assay [9] was above 100 µM in each case.
Regarding `CCOC(=O)c1c(-c2ccccc2)c(C(OC(c2ccccc2)c2c(-c3ccccc3)c(C(=O)OCC)n3ccccc23)c2ccccc2)c2ccccn12` (configuration not stated), the TGI in assay [1], in assay [2], in assay [3], in assay [4], in [5] and in assay [6] was above 100 µM each time. The TGI in assay [7], in assay [8] and in assay [9] was above 100 µM in each case.
Take `ClCc1ccc(C2OCCO2)cc1`: the TGI in [1] is 32 µM; in [2], 52.5 µM; in [3], above 62 µM; in [4], 28.6 µM; in assay [5], above 62 µM; in [6], 54.4 µM. For the same compound, the results for the TGI in assay [7], in [8] and in assay [9] were 41.2 µM, above 100 µM and 49.2 µM, respectively.
For the compound `COC(=O)c1ccc(C(=O)OC)c2nc3cc(C)ccc3nc12`, the TGI in assay [1], in assay [2], in assay [3], in assay [6], in [7] and in assay [8] was above 100 µM throughout. In addition, the TGI in [9] is above 100 µM.
Regarding `Cc1cccc(N=C2NC(=O)C(CC(=O)Nc3ccc(C)cc3C)S2)c1` (configuration not stated), the TGI in assay [1], in assay [2], in assay [3], in assay [4], in assay [5] and in assay [6] was above 100 µM throughout. Further, the TGI in [8] and in assay [9] was above 100 µM each time.
Turning to `CC(/C=C/NNC1=NC(c2ccccc2)C(c2ccccc2)=NN1)Sc1ccccc1N` (configuration not stated), the TGI in assay [1] is 29.9 µM; in assay [2] it was 14 µM; in [3], 22.2 µM; in assay [4] it was 11.7 µM; in assay [6] it was 13.6 µM; in assay [7], 33.7 µM. In addition, the TGI in [8] came to 30 µM; in assay [9], 22 µM.
Consider `COc1c(Sc2ccccc2)cc(Sc2ccccc2)c2cccnc12`, for which the TGI was above 100 µM in assay [1]; 66 µM in assay [2]; above 100 µM in assay [3]; 51.5 µM in [5]; 65.9 µM in [6]; above 100 µM in [7]. Also, the TGI was above 100 µM in assay [8] and 61.2 µM in assay [9].
Consider `COc1ccc2ccccc2c1CN1CCOCCOCCN(Cc2c(OC)ccc3ccccc23)CCOCCOCC1`, for which the TGI in [1] is 35.3 µM; in assay [2], above 100 µM; in assay [3] it was above 100 µM; in assay [4] it was above 89.8 µM; in assay [5], above 100 µM; in assay [6], above 46.4 µM. Moreover, the TGI in assay [7], in assay [8] and in assay [9] was above 100 µM in each case.
Turning to `Nc1ccc(C(=O)CC2(O)C(=O)Nc3c(Cl)cc(Cl)cc32)cc1` (configuration not stated), the TGI in assay [1], in assay [2], in assay [3], in assay [4], in assay [5] and in [6] was above 100 µM throughout. For the same compound, the TGI in assay [7] and in assay [9] was above 100 µM in each case.
In the case of `Cc1c(C(=O)CC(=O)C(=O)Nc2cc(Cl)ccc2Cl)[n+](=O)c2ccccc2n1[O-]`, the TGI in [1] was above 100 µM; in assay [2], 78.1 µM; in assay [3] it was above 100 µM; in assay [4] it was 53.6 µM; in assay [5], above 100 µM; in assay [6] it was above 100 µM. The figures for the TGI in assay [7], in assay [8] and in assay [9] were above 100 µM, above 100 µM and 61 µM, respectively.
As for `CC1=NOC(=O)C1N=Nc1ccc(Br)c(C)c1` (configuration not stated), the TGI in [1] was determined as 60.6 µM; in assay [2], 60.5 µM; in assay [3], 32 µM; in [5], 43.1 µM; in [6], 38.8 µM; in [7] it was 48.4 µM. The TGI in assay [8] is 39.4 µM; in [9], 33.6 µM.
